These results are taken from US8642553B2, “Acacia macrostachya seed extract and compositions containing same” (Laboratoires Expanscience, priority 2009, dated 2014).

For assay [1], the system named is Normal human keratinocytes. The assay is described as follows: Screening of expression of junction protein messengers in keratinocytes (PCR array). Format: cell-based. The conditions noted are these: 1.5 mM, 24 hours, Control: 100%. Here is the method: The activity of Acacia hydrolysate was studied by quantitative RT-PCR on the level of expression of 16 genes mainly coding for tight junction proteins as well as for the major proteins of the communicating junctions of the epidermis. […] The expression of the markers was evaluated by quantitative RT-PCR (PCR array). The variation in the expression of the markers studied compared to the control was expressed in percentage (Control: 100%). The levels of expression are classified in the following manner: […]

Another assay deals with Normal human fibroblasts. The assay is described as follows: Gene expression of markers of the dermal matrix and antioxidant defences by fibroblasts (quantitative RT-PCR in real time). Format: cell-based. The following applies: 5 ng/ml, 24h. As for the experimental part:
The effect of Acacia hydrolysate on the modulation of the extra-cellular matrix of the dermis and on the stimulation of the anti-oxidant defences was evaluated on a dermal fibroblasts model in which the gene expression of elastin, MMP1 and heme oxygenase 1 was studied by quantitative RT-PCR in real time.
Normal human fibroblasts were treated for 24h with 0.01% and 0.05% Acacia hydrolysate (w/v) or with the reference TGFβ1 at 5 ng/ml. The gene expression of the selected markers was analysed by quantitative RT-PCR in real time.
The results were analysed statistically by a one-way variance analysis (ANOVA) followed by a Dunnett test: • ns p>0.05: not significant • *0.01<p<0.05: significant • **0.001<p<0.01: very significant • ***p<0.001: highly significant
The level of gene expression was expressed in relative quantity (RQ) and the effect of the treatment in relation to the control cells in percentage increase or inhibition.

Regarding `[Ca+2].[Cl-].[Cl-]` [CaCl2, calcium chloride], in assay [1], the Cingulin messenger expression amounted to 337 % Control, the “Claudin 1 messenger expression” value is on record as 216 % Control, the “Gap junction protein (β2 messenger expression)” value worked out at 43 % Control and the Occludin messenger expression stood at 445 % Control.

As to TGFβ1: reference TGFβ1 at 5 ng/ml, in the assay with Normal human fibroblasts, the “ELASTIN gene expression, percentage increase or inhibition vs control cells” value is on record as “+559%” and the “MMP1 gene expression, percentage increase or inhibition vs control cells” value was −88%. In the assay with Normal human fibroblasts (control cells 1.00), the “ELASTIN gene expression, relative quantity (RQ)” value is on record as 6.59 and the “MMP1 gene expression, relative quantity (RQ)” value is 0.12.
